Experimental data published in ChEMBL document CHEMBL4619786, “Discovery of Novel Resorcinol Dibenzyl Ethers Targeting the Programmed Cell Death-1/Programmed Cell Death-Ligand 1 Interaction as Potential Anticancer Agents” (J Med Chem, 2020).
≈ marks a conversion by molar mass, not a printed value. Each block holds one molecule with its values, some of them ahead of it.

Key:
B16-F10 = experiment: Cytotoxicity against mouse B16/F10 cells assessed as reduction in cell viability measured after 48 hrs by MTT assay; format: functional, cell-based; conditions: B16-F10, 48 h
[1] = biological target: T1, Programmed cell death protein 1/Programmed cell death 1 ligand 1 (Homo sapiens, UniProt Q9NZQ7); experiment: Inhibition of human PD1/PDL1 protein-protein interaction by HTRF assay; format: protein-complex assay
T1 sequence (Q15116 whole entry): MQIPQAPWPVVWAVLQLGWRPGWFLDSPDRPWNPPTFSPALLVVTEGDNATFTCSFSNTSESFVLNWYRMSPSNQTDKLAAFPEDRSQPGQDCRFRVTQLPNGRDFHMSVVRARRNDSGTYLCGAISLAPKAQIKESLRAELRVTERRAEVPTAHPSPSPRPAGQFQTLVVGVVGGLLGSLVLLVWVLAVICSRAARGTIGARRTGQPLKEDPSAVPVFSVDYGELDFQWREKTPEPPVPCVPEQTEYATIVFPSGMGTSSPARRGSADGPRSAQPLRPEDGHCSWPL
T1 sequence (Q9NZQ7 whole entry): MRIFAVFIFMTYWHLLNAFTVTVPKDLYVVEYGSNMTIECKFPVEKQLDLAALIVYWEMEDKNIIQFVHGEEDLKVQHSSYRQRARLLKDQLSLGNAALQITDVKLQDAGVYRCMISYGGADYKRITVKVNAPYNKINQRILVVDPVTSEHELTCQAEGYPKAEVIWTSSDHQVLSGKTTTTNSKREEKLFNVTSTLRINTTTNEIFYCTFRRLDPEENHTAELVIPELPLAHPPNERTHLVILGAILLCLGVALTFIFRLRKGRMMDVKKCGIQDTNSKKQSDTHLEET

[2] = biological target: T1, Programmed cell death protein 1/Programmed cell death 1 ligand 1; experiment: Inhibition of human C-terminal Ig-Fc-tagged PD1 (Leu25 to Gln167 residues) expressed in HEK293 cells/human C-terminal epitope-His-tagged PDL1 (Phe19 to Arg238 residues) expressed in HEK293 cells protein-protein interaction preincubated for 15 mins with PDL1 followed by PD1 addition and measured after 15 mins by APC-labeled anti-His antibody/Eu-labeled anti-human IgG based HTRF assay; format: cell-based
A549 = experiment: Cytotoxicity against human A549 cells assessed as reduction in cell viability measured after 48 hrs by MTT assay; format: functional, cell-based; conditions: A549, 48 h
MCF7 = experiment: Cytotoxicity against human MCF7 cells assessed as reduction in cell viability measured after 48 hrs by MTT assay; format: functional, cell-based; conditions: MCF7, 48 h
[3] = biological target: T1, Programmed cell death protein 1/Programmed cell death 1 ligand 1; experiment: Inhibition of human Fc-tagged PD1 N-terminal domain (Leu25 to Gln167 residues) expressed in HEK293 cells/human His-tagged PDL1 (Phe19 to Arg238 residues) expressed in HEK293 cells protein-protein interaction after 40 mins by APC-labeled anti-His antibody/Eu-labeled anti-human IgG based HTRF assay; format: cell-based
[4] = Solubility of the compound in water; format: physicochemical

SMILES: Cc1c(COc2cc(OCc3cccc(C#N)c3)c(CN3CC[C@H](C(=O)O)C3)cc2Cl)cccc1-c1ccc2c(c1)OCCO2
IC50 (B16-F10): 10.8 µM
IC50 [1]: 7.9 nM
IC50 [2]: 7.9 nM
IC50 (A549): > 10 µM
IC50 (MCF7): > 10 µM

SMILES: Cc1c(COc2cc(OCc3ccnc(C#N)c3)c(CNC(C)(C)C(=O)O)cc2Cl)cccc1-c1ccc2ocnc2c1
IC50 [2]: 10 nM

SMILES: COc1cc(NC(=O)c2cccc(-c3ccccc3)c2C)ccc1CN1CCN(C(C)=O)CC1
IC50 [3]: > 10 µM

solubility [4]: 7.6 µg/mL (≈ 20.5 µM)
SMILES: O=C(NC(Cc1cc(=O)[nH]c2ccccc12)C(=O)O)c1ccc(Cl)cc1 (stereo unspecified) [REBAMIPIDE]

SMILES: Cc1c(COc2cc(OCc3cccc(C#N)c3)c(CNC(C)(C)C(=O)O)cc2Cl)cccc1-c1ccncc1
IC50 [1]: > 100 nM
IC50 [2]: > 100 nM

SMILES: Cc1c(COc2cc(OCc3cccc(C#N)c3)c(CN3C[C@@H](O)C[C@@H]3CO)cc2Cl)cccc1-c1ccc2c(c1)OCCO2
IC50 (B16-F10): 2.4 µM
IC50 [1]: 11.1 nM
IC50 (A549): 4.6 µM
IC50 (MCF7): 6.6 µM

SMILES: Cc1c(Nc2cccc3cc(CNCCO)cnc23)cccc1-c1ccccc1
IC50 [3]: < 0.01 µM

SMILES: Cc1c(COc2cc(OCc3cccc(C#N)c3)c(CN[C@H](CO)C(=O)O)cc2Cl)cccc1-c1ccccc1
IC50 (B16-F10): > 10 µM
IC50 [1]: 8 nM
IC50 (A549): > 10 µM
IC50 (MCF7): > 10 µM

SMILES: Cc1c(COc2ccc3cc(CNCCO)ccc3c2)cccc1-c1ccccc1
IC50 [1]: > 10000 nM
IC50 [3]: > 10 µM
